Consider six molecules from BindingDB's records for doi:10.1016/0014-2999(96)00122-7 (Synaptic Pharmaceutical, 1996).

pKi: −log10 of the molar value.

Chain of 5-hydroxytryptamine receptor 4 (Q62758 whole entry): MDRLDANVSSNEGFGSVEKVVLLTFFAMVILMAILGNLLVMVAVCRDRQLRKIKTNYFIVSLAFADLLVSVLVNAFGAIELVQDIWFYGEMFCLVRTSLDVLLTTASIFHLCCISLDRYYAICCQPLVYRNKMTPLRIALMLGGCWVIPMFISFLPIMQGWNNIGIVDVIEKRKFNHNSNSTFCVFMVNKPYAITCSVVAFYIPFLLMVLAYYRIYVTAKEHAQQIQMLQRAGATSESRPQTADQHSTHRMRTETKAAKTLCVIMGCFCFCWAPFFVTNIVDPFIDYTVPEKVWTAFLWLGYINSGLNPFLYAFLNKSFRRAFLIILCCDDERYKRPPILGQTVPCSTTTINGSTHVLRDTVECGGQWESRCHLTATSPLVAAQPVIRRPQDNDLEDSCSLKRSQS

This experiment has as its target 5-hydroxytryptamine receptor 4 (Rattus norvegicus, UniProt Q62758).
Turning to `CN1C2CCC1CC(OC(=O)c1c[nH]c3ccccc13)C2` (stereo unspecified), the pKi (commonly −log10 of the Ki, conventionally taken in molar units) is 6.80.
For the molecule `Cn1cc(CCN)c2cc(O)ccc21` [5-HT,omega-N-Me], the pKi is 6.58.
Next, `COc1cc(N)c(Cl)cc1C(=O)NC1CCN(CCCOc2ccc(F)cc2)CC1OC` (stereo unspecified) [4-amino-5-chloro-N-(1-(3-(4-fluorophenoxy)propyl)-3-methoxypiperidin-4-yl)-2-methoxybenzamide]: 7.60.
Next, `COc1cc(N)c(Cl)cc1C(=O)NC1CCN2CCCC1C2` (stereo unspecified) [NSC_3035240]: 7.57.
Next, `NCCc1c[nH]c2ccc(C(N)=O)cc12` [[3H]-5-carboxamidotryptamine]: 6.00; `COc1ccc2[nH]cc(CCN)c2c1` [tryptamine, 5-Methoxy]: 6.95.
